In US8586588B2, “Aryl pyridazinone derivatives and their use as H3 receptor ligands” (Cephalon, Inc., priority 2006, dated 2013):
Counter-ions that a name gives are not always drawn. Like-named read-outs stand apart in the source and are kept apart here.

Experiments:
human H3 receptor = molecular target: T1, human H3 receptor (Homo sapiens, UniProt Q9Y5N1); experiment: Human H3 radioligand binding ([3H]-N-alpha-methylhistamine, CHO cell membranes, SPA); conditions: Table B, binding constant as letter class
T1 construct: expressed in transfected cells
Outline: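 CHO cell membranes expressing human H3 (10 μg protein/well) incubated 4 h at room temperature, in the dark, with ~1 nM [3H]-N-alpha-methylhistamine, compounds (0.01 nM-30 μM) and SPA beads in 50 mM Tris HCl pH 7.4, 5 mM MgCl2, 0.1% BSA. Non-specific binding defined with 10 μM clobenpropit.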

[1] = molecular target: T2, rat histamine H3 receptor (Rattus norvegicus, UniProt Q9QYN8); experiment: Rat H3 radioligand binding ([3H]-N-alpha-methylhistamine, CHO-A3 cell membranes, SPA)
T2 construct: encoding the entire 445-amino-acid rat histamine H3 receptor; expressed in transfected cells
Outline: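 Membranes from CHO-A3 cells stably expressing rat H3 (10 μg protein) incubated 4 h at room temperature in 50 mM Tris-HCl pH 7.4, 5 mM MgCl2, 0.1% BSA with ~1 nM [3H]-N-alpha-methylhistamine and compound (0.01 nM-30 μM). Bound radioligand read by scintillation proximity; nonspecific binding with 10 μM clobenpropit.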

[2] = Table B, binding constant as letter class, read-out: rat H3 Ki

T2 sequence (Q9QYN8 whole entry): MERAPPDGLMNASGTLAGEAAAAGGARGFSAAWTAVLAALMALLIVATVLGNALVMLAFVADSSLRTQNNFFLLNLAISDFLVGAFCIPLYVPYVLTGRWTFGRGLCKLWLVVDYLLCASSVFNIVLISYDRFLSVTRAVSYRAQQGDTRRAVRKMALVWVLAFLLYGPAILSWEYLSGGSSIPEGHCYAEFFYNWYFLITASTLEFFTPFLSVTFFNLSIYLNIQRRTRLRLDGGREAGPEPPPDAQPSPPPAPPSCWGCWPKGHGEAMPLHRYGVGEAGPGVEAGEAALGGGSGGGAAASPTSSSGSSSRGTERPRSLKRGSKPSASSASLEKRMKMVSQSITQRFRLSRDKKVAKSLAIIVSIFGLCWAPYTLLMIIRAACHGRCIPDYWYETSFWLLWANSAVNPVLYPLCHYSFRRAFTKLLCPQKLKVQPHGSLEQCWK
T1 sequence (Q9Y5N1 whole entry): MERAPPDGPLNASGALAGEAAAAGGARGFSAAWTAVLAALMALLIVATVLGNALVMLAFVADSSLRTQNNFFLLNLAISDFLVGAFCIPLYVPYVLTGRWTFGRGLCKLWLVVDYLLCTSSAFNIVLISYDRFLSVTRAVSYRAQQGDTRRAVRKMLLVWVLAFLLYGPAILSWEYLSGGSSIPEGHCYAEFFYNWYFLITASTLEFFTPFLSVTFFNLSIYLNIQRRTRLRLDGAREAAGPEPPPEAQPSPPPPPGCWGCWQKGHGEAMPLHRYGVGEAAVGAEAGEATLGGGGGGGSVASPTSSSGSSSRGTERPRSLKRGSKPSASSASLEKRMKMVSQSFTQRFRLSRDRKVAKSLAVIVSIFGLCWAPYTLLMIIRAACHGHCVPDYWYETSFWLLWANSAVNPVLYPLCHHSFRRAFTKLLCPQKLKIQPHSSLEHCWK

SMILES | melting point | other results
C[C@@H]1CCCN1CCCOc1c(F)cc(C2=NNC(=O)CC2)cc1F [Example 186, 6-{3,5-Difluoro-4-[3-((R)-2-methyl-pyrrolidin-1-yl)-propoxy]-phenyl}-4,5-dihydro-2H-pyridazin-3-one] | 102 to 104 °C | Ki (human H3 receptor): 0.1 to 100 nM; Ki [1, 2]: 0.1 to 100 nM
C[C@H](COc1ccc(C2=NNC(=O)C3CC23)cc1)CN1CCC[C@H]1C (some centres unmarked) [Example 245] | 112 to 115 °C | Ki (human H3 receptor): 0.1 to 100 nM; Ki [1, 2]: 0.1 to 100 nM
C[C@H](COc1ccc(-c2cn[nH]c(=O)c2)cc1)CN1CCC[C@H]1C [Example 225, 5-{4-[(S)-2-Methyl-3-((R)-2-methyl-pyrrolidin-1-yl)-propoxy]-phenyl}-2H-pyridazin-3-one] | 154 to 156 °C | Ki [1]: 0.1 to 100 nM
C[C@@H](COc1ccc(-c2cn[nH]c(=O)c2)cc1)CN1CCC[C@H]1C [Example 226, 5-{4-[(R)-2-Methyl-3-((R)-2-methyl-pyrrolidin-1-yl)-propoxy]-phenyl}-2H-pyridazin-3-one] | 130 to 133 °C | Ki [1]: 0.1 to 100 nM
CC1CC(=O)NN=C1c1ccc(OC2CCN(C3CCC3)CC2)cc1 (racemic) [Example 189, 6-[4-(1-Cyclobutyl-piperidin-4-yloxy)-phenyl]-5-methyl-4,5-dihydro-2H-pyridazin-3-one] | 163 to 165 °C | Ki [1]: 0.1 to 100 nM
C[C@@H]1CCCN1CCCOc1ccc2c(c1)CCc1cc(=O)n(-c3ccccc3)nc1-2 (as salt: HCl) [Example 76, 8-[3-((R)-2-Methyl-pyrrolidin-1-yl)-propoxy]-2-phenyl-5,6-dihydro-2H-benzo[h]cinnolin-3-one] | 140 to 142 °C | 
Cn1nc(-c2ccc(OCC3CCN(CC4CC4)CC3)cc2)ccc1=O (as salt: HCl) [Example 69, 6-[4-(1-Cyclopropylmethyl-piperidin-4-ylmethoxy)-phenyl]-2-methyl-2H-pyridazin-3-one] | 230 to 231 °C | 
Cc1cc(OCCCN2CCC[C@H]2C)ccc1C1=NNC(=O)CC1 (as salt: HCl) [Example 199, 6-{(R)-2-Methyl-4-[3-(2-methyl-pyrrolidin-1-yl)-propoxy]-phenyl}-4,5-dihydro-2H-pyridazin-3-one] | 121 to 123 °C | 
CN1N=C(c2ccc(OC3CCN(C4CCC4)CC3)cc2)C2CC2C1=O (centres unmarked) (as salt: HCl) [Example 252, 5-[4-(1-Cyclobutyl-piperidin-4-yloxy)-phenyl]-3-methyl-3,4-diaza-bicyclo[4.1.0]hept-4-en-2-one] | 243 to 245 °C | 
C[C@@H](COc1ccc(-c2ccc(=O)n(C)n2)cc1)CN1CCC[C@H]1C (as salt: HCl) [Example 82, 2-Methyl-6-{4-[(R)-2-methyl-3-((R)-2-methyl-pyrrolidin-1-yl)-propoxy]-phenyl}-2H-pyridazin-3-one] | 76 to 78 °C | 
COCn1ncc(-c2ccc(OC3CCN(C4CCC4)CC3)cc2C)cc1=O (as salt: HCl) [Example 234, 5-[4-(1-Cyclobutyl-piperidin-4-yloxy)-2-methyl-phenyl]-2-methoxymethyl-2H-pyridazin-3-one] | 119.5 to 123.5 °C | 
C[C@@H]1CCCN1CCCOc1ccc(C2=NN(C)C(=O)C3CCCC23)cc1 (stereo partly drawn) (as salt: HCl) [Example 58, 2-Methyl-4-{4-[3-((R)-2-methyl-pyrrolidin-1-yl)-propoxy]-phenyl}-2,4a,5,6,7,7a-hexahydro-cyclopenta[d]pyridazin-1-one] | < 50 °C | 
Cc1cc(OCCCN2CCC[C@H]2C)ccc1-c1cn[nH]c(=O)c1 (as salt: HCl) [Example 231, 5-{2-methyl-4-[3-((R)-2-methyl-pyrrolidin-1-yl)-propoxyl]-phenyl}-2H-pyridazin-3-one] | 186 to 188 °C | 
Cn1nc(-c2ccc(OCCCN3CCC[C@@H]3CO)cc2)ccc1=O (as salt: HCl) [Example 15, 6-{4-[3-((R)-2-Hydroxymethyl-pyrrolidin-1-yl)-propoxy]-phenyl}-2-methyl-2H-pyridazin-3-one] | 166 to 167 °C | 
CC(C)N1CCC(COc2ccc(-c3ccc(=O)n(C)n3)cc2)CC1 (as salt: HCl) [Example 68, 6-[4-(1-Isopropyl-piperidin-4-ylmethoxy)-phenyl]-2-methyl-2H-pyridazin-3-one] | 187 to 189 °C | 
CC1CC(c2ccc(OCCCN3CCC[C@H]3C)cc2)=NNC1=O (stereo partly drawn) (as salt: HCl) [Example 121, 4-Methyl-6-{4-[3-((R)-2-methyl-pyrrolidin-1-yl)-propoxy]-phenyl}-4,5-dihydro-2H-pyridazin-3-one] | 201 to 203 °C | 
Cn1nc(-c2ccc(OCC3CCN(C4CCCC4)CC3)cc2)ccc1=O (as salt: HCl) [Example 70, 6-[4-(1-Cyclopentyl-piperidin-4-ylmethoxy)-phenyl]-2-methyl-2H-pyridazin-3-one] | 250 to 251 °C | 
CC(C)n1nc(-c2ccc(OCCCN3CCC[C@H]3C)cc2)ccc1=O (as salt: tartrate) [Example 5, 2-Isopropyl-6-{4-[3-((R)-2-methyl-pyrrolidin-1-yl)-propoxy]-phenyl}-2H-pyridazin-3-one] | 60 to 64 °C | 
CC1CCC(C)N1CCCOc1ccc(-c2nn(C(C)C)c(=O)c3ccsc23)cc1 (centres unmarked) (as salt: HCl) [Example 23, 7-{4-[3-(2,5-Dimethyl-pyrrolidin-1-yl)-propoxy]-phenyl}-5-isopropyl-5H-thieno[2,3-d]pyridazin-4-one] | 158 to 159 °C | 
C[C@@H]1CCCN1CCCOc1ccc2cnn(C)c(=O)c2c1 (as salt: hydrochloride) [Example 79, 2-Methyl-7-[3-((R)-2-methyl-pyrrolidin-1-yl)-propoxy]-2H-phthalazin-1-one] | 252 to 253 °C | 
O=c1ccc(-c2ccccc2)nn1-c1ccc(OC2CCN(C3CCC3)CC2)nc1 (as salt: fumarate) [Example 203, 2-[6-(1-Cyclobutyl-piperidin-4-yloxy)-pyridin-3-yl]-6-phenyl-2H-pyridazin-3-one] | 155 to 159 °C | 

The next lines start with results.

melting point | SMILES | other results
238 to 240 °C | Cn1nc(-c2ccc(OCCCN3CCCCCC3)cc2)c2ccccc2c1=O (as salt: HCl) [Example 53, 4-[4-(3-Azepan-1-yl-propoxy)-phenyl]-2-methyl-2H-phthalazin-1-one] | 
176 to 178 °C | Cc1nn(C)c(=O)cc1-c1ccc(OCCCN2CCC[C@H]2C)cc1 (as salt: HCl) [Example 86, 2,6-Dimethyl-5-{4-[3-((R)-2-methyl-pyrrolidin-1-yl)-propoxy]-phenyl}-2H-pyridazin-3-one] | 
228 to 230 °C | C[C@@H]1CCCN1CCCOc1ccc(-c2ccc(=O)n(Cc3ccccc3)n2)cc1 (as salt: HCl) [Example 18, 2-Benzyl-6-{4-[3-((R)-2-methyl-pyrrolidin-1-yl)-propoxy]-phenyl}-2H-pyridazin-3-one] | 
227 to 229 °C | O=c1c2ccsc2c(-c2ccc(OCCCN3CCCCC3)cc2)nn1Cc1ccc(Cl)cc1 (as salt: HCl) [Example 37, 5-(4-Chloro-benzyl)-7-[4-(3-piperidin-1-yl-propoxy)-phenyl]-5H-thieno[2,3-d]pyridazin-4-one] | 
214 to 216 °C | Cn1nc(-c2ccc(OCCCN3CCCCC3)cc2)c2c(c1=O)CCC2 (as salt: HCl) [Example 57, 2-Methyl-4-[4-(3-piperidin-1-yl-propoxy)-phenyl]-2,5,6,7-tetrahydro-cyclopenta[d]pyridazin-1-one] | 
227 to 229 °C | Cc1cc(-c2ccc(OCCCN3CCCCC3)cc2)n[nH]c1=O (as salt: HCl) [Example 123, 4-Methyl-6-[4-(3-piperidin-1-yl-propoxy)-phenyl]-2H-pyridazin-3-one] | 
207 to 209 °C | C[C@@H]1CCCN1CCCOc1ccc(-c2nn(C)c(=O)cc2-c2ccccc2)cc1 (as salt: HCl) [Example 47, 2-Methyl-6-{4-[3-((R)-2-methyl-pyrrolidin-1-yl)-propoxy]-phenyl}-5-phenyl-2H-pyridazin-3-one] | 
151 to 153 °C | CCCn1nc(-c2ccc(OCCCN3CCC[C@H]3C)cc2)c2sccc2c1=O (as salt: HCl) [Example 32, 7-{4-[3-((R)-2-Methyl-pyrrolidin-1-yl)-propoxy]phenyl}-5-propyl-5H-thieno[2,3-d]pyridazin-4-one] | 
189 to 190 °C | Cn1nc(-c2cccc(OCCCN3CCCCC3)c2)c2c(c1=O)CCC2 (as salt: HCl) [Example 126, 2-Methyl-4-[3-(3-piperidin-1-yl-propoxy)-phenyl]-2,5,6,7-tetrahydro-cyclopenta[d]pyridazin-1-one] | 
230 to 232 °C | O=c1ccc(-c2ccc(OCCCN3CCCCC3)c(F)c2)nn1-c1ccccc1 (as salt: HCl) [Example 10, 6-[3-Fluoro-4-(3-piperidin-1-yl-propoxy)-phenyl]-2-phenyl-2H-pyridazin-3-one] | 
186 to 187 °C | Cn1nc(-c2ccc(OCCCN3CCCCC3)cc2)cc(Cc2ccccc2)c1=O (as salt: HCl) [Example 46, 4-Benzyl-2-methyl-6-[4-(3-piperidin-1-yl-propoxy)-phenyl]-2H-pyridazin-3-one] | 
204 to 206 °C | Cc1n[nH]c(=O)cc1-c1ccc(OCCCN2CCCCCC2)cc1 (as salt: hydrochloride) [Example 90, 5-[4-(3-Azepan-1-yl-propoxy)-phenyl]-6-methyl-2H-pyridazin-3-one] | 
213 to 215 °C | C[C@@H]1CCCN1CCCOc1ccc(C2=NN(c3ccccc3)C(=O)CC2)cc1 (as salt: HCl) [Example 19] | 
